Measurements as given in ChEMBL document CHEMBL4825663 (J Med Chem, 2021).
Values after ≈ are worked out from the molar mass of the structure shown.

Assays:
[1] = tested on: MES-SA/Dx5; test: Selectivity index, ratio of EC50 for inhibition of P-gp (unknown origin) expressed in MES-SA/DX5 cells assessed as increase in paclitaxel-induced cytotoxicity in absence of compound to EC50 for inhibition of P-gp (unknown origin) expressed in MES-SA/DX5 cells assessed as increase in paclitaxel-induced cytotoxicity in presence of compound; assay type: cell-based; conditions: Homo sapiens
[2] = Aqueous solubility of compound at pH 5.5; assay type: physicochemical; conditions: aqueous solution
[3] = target: ATP-dependent translocase ABCB1 (Homo sapiens, UniProt P08183); test: Inhibition of paclitaxel stimulated- P-gp ATPase activity (unknown origin)
[4] = target: T1, Broad substrate specificity ATP-binding cassette transporter ABCG2 (Homo sapiens, UniProt Q9UNQ0); test: Inhibition of sulfasalazine-stimulated BCRP ATP ase activity (unknown origin)
T1 sequence (Q9UNQ0 whole entry): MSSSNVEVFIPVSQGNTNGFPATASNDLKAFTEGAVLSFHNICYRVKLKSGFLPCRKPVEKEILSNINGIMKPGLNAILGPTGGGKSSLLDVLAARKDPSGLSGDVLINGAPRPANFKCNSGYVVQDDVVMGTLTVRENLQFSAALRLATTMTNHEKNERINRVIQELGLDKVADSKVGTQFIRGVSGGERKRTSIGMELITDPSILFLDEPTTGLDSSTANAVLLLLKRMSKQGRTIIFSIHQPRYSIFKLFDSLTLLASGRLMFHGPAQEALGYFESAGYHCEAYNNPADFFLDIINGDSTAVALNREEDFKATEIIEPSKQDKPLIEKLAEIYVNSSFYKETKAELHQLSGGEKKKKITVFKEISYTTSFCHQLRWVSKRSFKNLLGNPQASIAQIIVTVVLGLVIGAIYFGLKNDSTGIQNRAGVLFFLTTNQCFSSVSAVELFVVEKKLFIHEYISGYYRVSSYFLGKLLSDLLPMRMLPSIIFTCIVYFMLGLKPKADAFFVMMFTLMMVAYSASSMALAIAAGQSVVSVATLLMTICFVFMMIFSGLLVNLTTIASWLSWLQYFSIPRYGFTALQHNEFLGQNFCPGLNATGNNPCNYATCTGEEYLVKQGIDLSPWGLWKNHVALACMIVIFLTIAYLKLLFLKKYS

[5] = Apparent permeability from apical to basolateral side in MDCK-II cells after 120 mins by LC-MS/MS analysis; assay type: ADME, cell-based, Canis lupus familiaris; conditions: dog
[6] = Aqueous solubility of compound at neutral pH; assay type: physicochemical; conditions: aqueous solution

ATP-dependent translocase ABCB1, sequence (P08183 whole entry): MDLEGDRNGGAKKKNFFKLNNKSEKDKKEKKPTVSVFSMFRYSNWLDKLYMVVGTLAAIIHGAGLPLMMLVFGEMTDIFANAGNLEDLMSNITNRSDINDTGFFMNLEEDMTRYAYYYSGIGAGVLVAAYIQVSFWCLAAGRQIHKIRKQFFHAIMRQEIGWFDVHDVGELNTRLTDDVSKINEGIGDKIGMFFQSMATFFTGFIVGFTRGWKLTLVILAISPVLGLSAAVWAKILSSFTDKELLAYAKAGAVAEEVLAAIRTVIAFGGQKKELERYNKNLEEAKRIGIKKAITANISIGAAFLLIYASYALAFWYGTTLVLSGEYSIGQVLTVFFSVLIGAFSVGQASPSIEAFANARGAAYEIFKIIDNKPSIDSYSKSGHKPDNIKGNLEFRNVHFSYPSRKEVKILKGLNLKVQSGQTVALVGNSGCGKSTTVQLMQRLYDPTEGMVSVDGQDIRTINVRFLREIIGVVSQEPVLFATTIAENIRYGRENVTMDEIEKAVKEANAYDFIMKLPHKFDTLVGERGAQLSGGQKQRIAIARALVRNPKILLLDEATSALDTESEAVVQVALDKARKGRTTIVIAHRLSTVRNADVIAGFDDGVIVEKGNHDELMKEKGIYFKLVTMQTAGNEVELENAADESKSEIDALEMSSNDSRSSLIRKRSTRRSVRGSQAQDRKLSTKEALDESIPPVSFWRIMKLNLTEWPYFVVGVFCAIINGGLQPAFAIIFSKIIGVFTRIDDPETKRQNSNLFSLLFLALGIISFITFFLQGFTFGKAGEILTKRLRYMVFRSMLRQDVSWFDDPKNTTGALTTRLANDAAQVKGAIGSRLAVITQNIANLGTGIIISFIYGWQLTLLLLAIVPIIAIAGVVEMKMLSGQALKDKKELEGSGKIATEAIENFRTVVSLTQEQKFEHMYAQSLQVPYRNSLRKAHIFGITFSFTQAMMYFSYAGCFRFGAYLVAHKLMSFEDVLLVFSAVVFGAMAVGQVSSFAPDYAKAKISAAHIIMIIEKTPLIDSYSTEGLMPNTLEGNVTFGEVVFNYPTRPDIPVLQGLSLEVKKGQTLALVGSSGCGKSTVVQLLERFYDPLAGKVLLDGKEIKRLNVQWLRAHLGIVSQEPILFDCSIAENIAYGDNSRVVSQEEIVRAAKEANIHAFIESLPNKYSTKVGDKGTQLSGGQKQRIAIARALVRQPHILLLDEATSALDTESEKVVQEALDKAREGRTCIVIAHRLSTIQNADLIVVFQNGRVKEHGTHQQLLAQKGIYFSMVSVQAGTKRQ

Compound	Ratio EC50 [1]	other results
COc1cc2c(cc1OC)CN(CCc1ccc(-n3nnc(-c4cc(OC)c(OC)cc4NC(=O)c4cccnc4)n3)cc1)CC2	3	
COc1cc2c(cc1OC)CN(CCc1ccc(-n3nnc(-c4cc(OC)c(OC)cc4NC(=O)c4cc5ccccc5cn4)n3)cc1)CC2	3.5	
COc1cc2c(cc1OC)CN(CCc1ccc(-n3nnc(-c4cc(OC)c(OC)cc4NC(=O)c4ccc5ccccc5n4)n3)cc1)CC2	2.7	
COc1cc2c(cc1OC)CN(CCc1ccc(-n3nnc(-c4cc(OC)c(OC)cc4NC(=O)c4ccoc4)n3)cc1)CC2	3.5	
COc1cc2c(cc1OC)CN(CCc1ccc(-n3nnc(-c4cc(OC)c(OC)cc4NC(=O)c4nccc5ccccc45)n3)cc1)CC2	1.8	
COc1cc2c(cc1OC)CN(CCc1ccc(-n3nnc(-c4cc(OC)c(OC)cc4NC(=O)c4cnc5ccccc5c4)n3)cc1)CC2	20.3	
COc1cc2c(cc1OC)CN(CCc1ccc(-n3nnc(-c4cc(OC)c(OC)cc4NC(=O)c4ccc(F)c(F)c4)n3)cc1)CC2	3.7	
COc1cc2c(cc1OC)CN(CCc1ccc(-n3nnc(-c4cc(OC)c(OC)cc4NC(=O)c4cc(=O)c5cc(C)ccc5o4)n3)cc1)CC2	73.4	
COc1cc2c(cc1OC)CN(CCc1ccc(-n3nnc(-c4cc(OC)c(OC)cc4NC(=O)c4cc(=O)c5cc(F)ccc5o4)n3)cc1)CC2	39.3	
COc1cc2c(cc1OC)CN(CCc1ccc(-n3nnc(-c4cc(OC)c(OC)cc4NC(=O)c4cc(=O)c5c(OC)cccc5o4)n3)cc1)CC2	49.9	
COc1cc2c(cc1OC)CN(CCc1ccc(-n3nnc(-c4cc(OC)c(OC)cc4NC(=O)c4ccccc4)n3)cc1)CC2	3.4	
COc1cc2c(cc1OC)CN(CCc1ccc(-n3nnc(-c4cc(OC)c(OC)cc4NC(=O)c4cncc5ccccc45)n3)cc1)CC2	3.3	
COc1cc2c(cc1OC)CN(CCc1ccc(-n3nnc(-c4cc(OC)c(OC)cc4NC(=O)c4ccc5ccccc5c4)n3)cc1)CC2	2.6	
COc1cc2c(cc1OC)CN(CCc1ccc(-n3nnc(-c4cc(OC)c(OC)cc4NC(=O)c4ccsc4)n3)cc1)CC2	4.5	
COc1cc2c(cc1OC)CN(CCc1ccc(NC(=O)c3cc(OC)c(OC)cc3NC(=O)c3cnc4ccccc4c3)cc1)CC2		solubility [2]: 2500 µg/mL (≈ 3870 µM); IC50 [3]: 32.7 nM; IC50 [4]: 183 nM; Papp A→B at 2 h [5]: 1.1 ×10⁻⁶ cm/s
O[C@@H](COc1cccc2ncccc12)CN1CCN([C@@H]2c3ccccc3[C@@H]3[C@H](c4ccccc42)C3(F)F)CC1 [ZOSUQUIDAR]		Papp A→B at 2 h [5]: 1.1 ×10⁻⁶ cm/s
COc1cc2c(cc1OC)CN(CCc1ccc(-n3nnc(-c4cc(OC)c(OC)cc4NC(=O)c4cccc5cccnc45)n3)cc1)CC2	4.3	
COc1cc2c(cc1OC)CN(CCc1ccc(NC(=O)c3cccc4c(=O)c5cccc(OC)c5[nH]c34)cc1)CC2		solubility [6]: 0.123 µg/mL (≈ 0.218 µM); Papp A→B at 2 h [5]: 0.1 ×10⁻⁶ cm/s
COc1cc2c(cc1OC)CN(CCc1ccc(-n3nnc(-c4cc(OC)c(OC)cc4NC(=O)c4coc5ccccc5c4=O)n3)cc1)CC2	2.1	
COc1cc2c(cc1OC)CN(CCc1ccc(-n3nnc(-c4cc(OC)c(OC)cc4NC(=O)c4cnccn4)n3)cc1)CC2	3	
